The subject of this test is L1210 leukemia ip in BDF1 mice, survival T/C. Put plainly: NCI In Vivo Anticancer Drug Screen. Data for tumor model L1210 Leukemia (intraperitoneal) in B6D2F1 (BDF1) mice. Particulars: endpoint: mean survival time, higher = longer survival. The method in brief: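 Mice bearing the transplanted tumor received compound or vehicle. Survival of the treated group was divided by that of the vehicle-treated control group to give the ratio.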

Where [1] appears, read: dose: 100.0 mg/kg/injection, schedule: Q01DX009 (ip), vehicle: saline with Tween-80.
[2] abbreviates: dose: 100.0 mg/kg/injection, schedule: Q04DX003 (ip), vehicle: saline with Tween-80.
The mark [3] stands for this setting: dose: 200.0 mg/kg/injection, schedule: Q01DX009 (ip), vehicle: saline with Tween-80.
[4] abbreviates: dose: 200.0 mg/kg/injection, schedule: Q04DX003 (ip), vehicle: saline with Tween-80.
Setting [5] is: dose: 400.0 mg/kg/injection, schedule: Q01DX009 (ip), vehicle: saline with Tween-80.
The mark [6] stands for this setting: dose: 400.0 mg/kg/injection, schedule: Q04DX003 (ip), vehicle: saline with Tween-80.
Setting [7] is: dose: 12.5 mg/kg/injection, schedule: Q01DX009 (ip), vehicle: Klucel (hydroxypropylcellulose) (HPC).
[8] abbreviates: dose: 25.0 mg/kg/injection, schedule: Q01DX009 (ip), vehicle: Klucel (hydroxypropylcellulose) (HPC).
The mark [9] stands for this setting: dose: 100.0 mg/kg/injection, schedule: Q01DX001 (ip), vehicle: Klucel (hydroxypropylcellulose) (HPC).
[10] abbreviates: dose: 100.0 mg/kg/injection, schedule: Q01DX009 (ip), vehicle: Klucel (hydroxypropylcellulose) (HPC).
Where [11] appears, read: dose: 100.0 mg/kg/injection, schedule: Q04DX003 (ip), vehicle: saline.
[12] abbreviates: dose: 200.0 mg/kg/injection, schedule: Q01DX009 (ip), vehicle: Klucel (hydroxypropylcellulose) (HPC).
[13] abbreviates: dose: 400.0 mg/kg/injection, schedule: Q01DX009 (ip), vehicle: Klucel (hydroxypropylcellulose) (HPC).
The mark [14] stands for this setting: dose: 50.0 mg/kg/injection, schedule: Q01DX009 (ip), vehicle: Klucel (hydroxypropylcellulose) (HPC).
[15] abbreviates: dose: 100.0 mg/kg/injection, schedule: Q04DX002 (ip), vehicle: Klucel (hydroxypropylcellulose) (HPC).
The mark [16] stands for this setting: dose: 200.0 mg/kg/injection, schedule: Q04DX002 (ip), vehicle: Klucel (hydroxypropylcellulose) (HPC).
Setting [17] is: dose: 100.0 mg/kg/injection, schedule: Q01DX001 (ip), vehicle: saline.
Where [18] appears, read: dose: 200.0 mg/kg/injection, schedule: Q01DX001 (ip), vehicle: saline.
Setting [19] is: dose: 400.0 mg/kg/injection, schedule: Q01DX001 (ip), vehicle: saline.
Setting [20] is: dose: 100.0 mg/kg/injection, schedule: Q04DX003 (ip), vehicle: Klucel (hydroxypropylcellulose) (HPC).
Setting [21] is: dose: 200.0 mg/kg/injection, schedule: Q04DX003 (ip), vehicle: Klucel (hydroxypropylcellulose) (HPC).
[22] abbreviates: dose: 400.0 mg/kg/injection, schedule: Q04DX003 (ip), vehicle: Klucel (hydroxypropylcellulose) (HPC).

The structures appear in SMILES notation. Where “and” joins values, the source holds several entries; their conditions need not be identical. Identical values can stand only once. Toxic doses and inconclusive results are not listed.

Our source for the T/C values is PubChem BioAssay AID248 (DTP/NCI, 2004).

With `CCN(C(=O)COc1ccc(Cl)cc1Cl)c1ccccc1C`, the T/C under setting [1] was 106 % of control; the T/C under setting [2] was 105 % of control; the T/C under setting [3] is 107 % of control; the T/C under setting [4] was 102 % of control; the T/C under setting [5] is 98 % of control; the T/C under setting [6] was 93 % of control.
Consider `C=CCc1cc(OC)c(OC)c(OC)c1`, for which the T/C under setting [1] is 104 % of control, the T/C under setting [3] is 101 % of control and the T/C under setting [5] is 101 % of control.
Regarding `Nc1nc(=S)c2[nH]c(N=Nc3ccc(S(=O)(=O)Nc4nccs4)cc3)nc2[nH]1`, the T/C runs as follows: (dose: 6.25 mg/kg/injection, schedule: Q01DX009 (ip), vehicle: Klucel (hydroxypropylcellulose) (HPC)) 92 % of control; under setting [7], 92 % of control; under setting [8], 100 % of control; (dose: 35.0 mg/kg/injection, schedule: Q01DX001 (ip), vehicle: Klucel (hydroxypropylcellulose) (HPC)) 119 % of control; under setting [9], 123 % of control; under setting [10], 88 % of control.
As for `CC(C)(C)NC(=O)CCl`, the T/C under setting [9] was 93 % of control and the T/C (dose: 200.0 mg/kg/injection, schedule: Q01DX001 (ip), vehicle: Klucel (hydroxypropylcellulose) (HPC)) is 106 % of control.
With `CC(=O)Nc1ccc(NC(=O)c2ccc(Cl)cc2)cc1`, the T/C is 95 % of control (dose: 50.0 mg/kg/injection, schedule: Q01DX001 (ip), vehicle: saline with Tween-80); 95 % of control (dose: 100.0 mg/kg/injection, schedule: Q01DX001 (ip), vehicle: saline with Tween-80); 97 % of control and 87 % of control under setting [1]; 90 % of control and 91 % of control (dose: 100.0 mg/kg/injection, schedule: Q04DX002 (ip), vehicle: saline with Tween-80); 92 % of control under setting [2]; 90 % of control (dose: 200.0 mg/kg/injection, schedule: Q01DX001 (ip), vehicle: saline with Tween-80). The T/C was 95 % of control and 97 % of control under setting [3]; 93 % of control and 97 % of control (dose: 200.0 mg/kg/injection, schedule: Q04DX002 (ip), vehicle: saline with Tween-80); 89 % of control under setting [4]; 87 % of control (dose: 400.0 mg/kg/injection, schedule: Q01DX001 (ip), vehicle: saline with Tween-80); 97 % of control and 90 % of control under setting [5]; 90 % of control and 92 % of control (dose: 400.0 mg/kg/injection, schedule: Q04DX002 (ip), vehicle: saline with Tween-80). Moreover, the T/C under setting [6] is 87 % of control.
With `CCN(CC)CCSC(=O)C(O)(c1ccccc1)c1ccccc1`, where the note is “dose: 75.0 mg/kg/injection, schedule: Q01DX001 (ip), vehicle: saline”, the T/C was 100 % of control.
For the compound `O=C[C@@H](CO)O[C@H](C=O)c1c[nH]c(=O)[nH]c1=O`, the T/C (dose: 66.0 mg/kg/injection, schedule: Q03DX003 (ip), vehicle: saline) was 213 % of control; the T/C (dose: 80.0 mg/kg/injection, schedule: Q04DX003 (ip), vehicle: saline) was 168 % of control; the T/C under setting [11] was 209 % of control; the T/C (dose: 120.0 mg/kg/injection, schedule: Q04DX003 (ip), vehicle: saline) is 252 % of control; the T/C (dose: 140.0 mg/kg/injection, schedule: Q04DX003 (ip), vehicle: saline) is 204 % of control; the T/C (dose: 150.0 mg/kg/injection, schedule: Q03DX003 (ip), vehicle: saline) was 217 % of control.
Turning to `COc1ccc(/C=N/NC(=O)c2ccc(Cl)c(Cl)c2)cc1`, the T/C runs as follows: under setting [10], 91 % of control; under setting [12], 100 % of control; under setting [13], 90 % of control.
For the compound `O=P(CCl)(CCl)CCl`, the T/C is 100 % of control (dose: 25.0 mg/kg/injection, schedule: Q01DX009 (ip), vehicle: saline with Tween-80); 92 % of control (dose: 50.0 mg/kg/injection, schedule: Q01DX009 (ip), vehicle: saline with Tween-80); 88 % of control and 92 % of control under setting [1].
In the case of `COc1cc2ccc(CC(N)=O)cc2cc1OC`, the T/C was 100 % of control under setting [11]; 97 % of control (dose: 200.0 mg/kg/injection, schedule: Q04DX003 (ip), vehicle: saline); 98 % of control (dose: 400.0 mg/kg/injection, schedule: Q04DX003 (ip), vehicle: saline).
In the case of `C=C(Br)CNC(=O)Nc1c2ccccc2nc2ccccc12`, the T/C is 86 % of control under setting [7]; 88 % of control under setting [8]; 89 % of control under setting [14]; 92 % of control under setting [10]; 89 % of control (dose: 150.0 mg/kg/injection, schedule: Q01DX009 (ip), vehicle: Klucel (hydroxypropylcellulose) (HPC)); 91 % of control (dose: 300.0 mg/kg/injection, schedule: Q01DX009 (ip), vehicle: Klucel (hydroxypropylcellulose) (HPC)).
As to `COc1ccc(OC)c([N+](=O)[O-])c1C=O`, the T/C is, setting by setting: (dose: 100.0 mg/kg/injection, schedule: Q01DX001 (ip), vehicle: other) 92 % of control; (dose: 200.0 mg/kg/injection, schedule: Q01DX001 (ip), vehicle: other) 90 % of control; (dose: 400.0 mg/kg/injection, schedule: Q01DX001 (ip), vehicle: other) 90 % of control.
For the compound `NC(=O)COc1ccc(Cl)cc1Cl`, the T/C is 111 % of control under setting [10], 112 % of control under setting [15], 101 % of control under setting [12] and 100 % of control under setting [16].
Regarding `Cn1c(=O)cc(/C=C/c2ccc(-c3ccccc3)cc2)c2ccccc21`, the T/C was 103 % of control under setting [17], 93 % of control under setting [18] and 93 % of control under setting [19].
Regarding `O=C(Cl)C1CC2c3ccccc3C1([N+](=O)[O-])c1ccccc12` (configuration not stated), the T/C by setting is: under setting [14], 109 % of control; under setting [10], 102 % of control; under setting [20], 104 % of control; under setting [12], 112 % of control and 91 % of control; under setting [21], 104 % of control; under setting [13], 101 % of control. The T/C under setting [22] is 98 % of control.
`O=C(O)c1cccc2c1ccc1ccccc12`: the T/C reads like this: (dose: 75.0 mg/kg/injection, schedule: Q04DX003 (ip), vehicle: saline) 104 % of control; (dose: 150.0 mg/kg/injection, schedule: Q04DX003 (ip), vehicle: saline) 102 % of control; (dose: 300.0 mg/kg/injection, schedule: Q04DX003 (ip), vehicle: saline) 100 % of control.
`C/C(=N/O)c1ccc2c(c1)Cc1ccccc1-2`: the T/C was 105 % of control (dose: 100.0 mg/kg/injection, schedule: Q01DX001 (ip), vehicle: carboxymethylcellulose (CMC)); 100 % of control (dose: 200.0 mg/kg/injection, schedule: Q01DX001 (ip), vehicle: carboxymethylcellulose (CMC)); 98 % of control (dose: 400.0 mg/kg/injection, schedule: Q01DX001 (ip), vehicle: carboxymethylcellulose (CMC)).
As to `O=C(COc1ccc(Cl)cc1C(=O)O)Nc1ccccc1`, the T/C was 93 % of control under setting [20], 102 % of control under setting [21] and 98 % of control under setting [22].
As for `CCOCCOCCOC(=O)COCC(=O)OCCOCCOCC`, the T/C is 96 % of control under setting [17], 113 % of control under setting [18] and 111 % of control under setting [19].
Turning to `CCc1cccc(CC)c1N=C=Nc1c(CC)cccc1CC`, the T/C (dose: 100.0 mg/kg/injection, schedule: Q04DX003 (ip), vehicle: other) was 104 % of control; the T/C (dose: 200.0 mg/kg/injection, schedule: Q04DX003 (ip), vehicle: other) is 100 % of control; the T/C (dose: 400.0 mg/kg/injection, schedule: Q04DX003 (ip), vehicle: other) was 104 % of control.
Regarding `CCCCCCCCCCCCN=C(N)N/C(N)=N/S(=O)(=O)c1ccc(OCCC)cc1`, the T/C runs as follows: under setting [15], 106 % of control; under setting [16], 100 % of control; (dose: 400.0 mg/kg/injection, schedule: Q04DX002 (ip), vehicle: Klucel (hydroxypropylcellulose) (HPC)) 95 % of control.
